Measurements taken from PubChem BioAssay AID248 (DTP/NCI, 2004).
Values joined by “and” are separate entries in the source; they are usually repeats but may differ in a detail not shown here. Identical values can stand only once. Toxic doses and inconclusive results are not listed. Cut-off read from the data, not from the text of the source: active = T/C of 150% or more; inactive = T/C below 125%. Peptide text beside a SMILES is read from it.

Tested on: L1210 leukemia ip in BDF1 mice, survival T/C
Assay: NCI In Vivo Anticancer Drug Screen. Data for tumor model L1210 Leukemia (intraperitoneal) in B6D2F1 (BDF1) mice
Conditions: endpoint: mean survival time, higher = longer survival
Procedure, shortened: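 Transplantable tumor model; survival measured in treated vs vehicle control mice. Value = treated/control.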

[1] = dose: 50.0 mg/kg/injection, schedule: Q01DX001 (ip), vehicle: saline
[2] = dose: 100.0 mg/kg/injection, schedule: Q01DX001 (ip), vehicle: saline
[3] = dose: 200.0 mg/kg/injection, schedule: Q01DX001 (ip), vehicle: saline
[4] = dose: 100.0 mg/kg/injection, schedule: Q04DX003 (ip), vehicle: Klucel (hydroxypropylcellulose) (HPC)
[5] = dose: 200.0 mg/kg/injection, schedule: Q04DX003 (ip), vehicle: Klucel (hydroxypropylcellulose) (HPC)
[6] = dose: 400.0 mg/kg/injection, schedule: Q04DX003 (ip), vehicle: Klucel (hydroxypropylcellulose) (HPC)
[7] = dose: 100.0 mg/kg/injection, schedule: Q01DX009 (ip), vehicle: Klucel (hydroxypropylcellulose) (HPC)
[8] = dose: 200.0 mg/kg/injection, schedule: Q01DX009 (ip), vehicle: Klucel (hydroxypropylcellulose) (HPC)
[9] = dose: 400.0 mg/kg/injection, schedule: Q01DX009 (ip), vehicle: Klucel (hydroxypropylcellulose) (HPC)
[10] = dose: 100.0 mg/kg/injection, schedule: Q01DX009 (ip), vehicle: saline with Tween-80
[11] = dose: 200.0 mg/kg/injection, schedule: Q01DX009 (ip), vehicle: saline with Tween-80
[12] = dose: 100.0 mg/kg/injection, schedule: Q01DX001 (ip), vehicle: Klucel (hydroxypropylcellulose) (HPC)
[13] = dose: 100.0 mg/kg/injection, schedule: Q04DX002 (ip), vehicle: Klucel (hydroxypropylcellulose) (HPC)
[14] = dose: 50.0 mg/kg/injection, schedule: Q04DX002 (ip), vehicle: saline with Tween-80
[15] = dose: 100.0 mg/kg/injection, schedule: Q04DX002 (ip), vehicle: saline with Tween-80
[16] = dose: 200.0 mg/kg/injection, schedule: Q04DX002 (ip), vehicle: saline with Tween-80
[17] = dose: 25.0 mg/kg/injection, schedule: Q01DX009 (ip), vehicle: Klucel (hydroxypropylcellulose) (HPC)
[18] = dose: 50.0 mg/kg/injection, schedule: Q01DX009 (ip), vehicle: Klucel (hydroxypropylcellulose) (HPC)
[19] = dose: 400.0 mg/kg/injection, schedule: Q01DX001 (ip), vehicle: saline

Measured: T/C

CN1CCC(CNC(=O)CCCCCCCCC(=O)NCC2(c3ccccc3)CCN(C)CC2)(c2ccccc2)CC1
inactive: dose: 0.63 mg/kg/injection, schedule: Q01DX Z (ip), vehicle: saline 89 % of control | dose: 1.25 mg/kg/injection, schedule: Q01DX Z (ip), vehicle: saline 89 % of control | dose: 2.5 mg/kg/injection, schedule: Q01DX Z (ip), vehicle: saline 88 % of control | dose: 5.0 mg/kg/injection, schedule: Q01DX Z (ip), vehicle: saline 86 % of control | dose: 5.0 mg/kg/injection, schedule: Q04DX003 (ip), vehicle: saline with Tween-80 102 % of control

CCOC(=O)NP(=O)(Nc1ccc(C)cc1)Nc1ccc(C)cc1
inactive: dose: 50.0 mg/kg/injection, schedule: Q01DX001 (ip), vehicle: carboxymethylcellulose (CMC) 104 % of control | dose: 100.0 mg/kg/injection, schedule: Q01DX001 (ip), vehicle: carboxymethylcellulose (CMC) 98 % of control | dose: 200.0 mg/kg/injection, schedule: Q01DX001 (ip), vehicle: carboxymethylcellulose (CMC) 95 % of control | dose: 400.0 mg/kg/injection, schedule: Q01DX001 (ip), vehicle: carboxymethylcellulose (CMC) 98 % of control

CN1CCCCCC(=N\O)/C(=N/O)CCCCC1
inactive: [1] 101 % of control | [2] 103 % of control | [3] 100 % of control

CN(C)C(=S)SCc1c(Cl)c(Cl)c(Cl)c(Cl)c1Cl
inactive: [4] 105 % of control | [5] 100 % of control | [6] 94 % of control

CCc1ccc(NC(=O)Nc2ccccc2C)cc1
inactive: [7] 92 % of control | [4] 93 % of control | [8] 94 % of control | [5] 93 % of control | [9] 100 % of control | [6] 94 % of control

CC(C)(C)NSc1nc2ccccc2s1
inactive: dose: 50.0 mg/kg/injection, schedule: Q01DX009 (ip), vehicle: saline with Tween-80 97 % of control | [10] 94 % of control | [11] 98 % of control

Nc1cc(Nc2ccccc2)nc(=O)[nH]1
inactive: [12] 94 % of control | dose: 200.0 mg/kg/injection, schedule: Q01DX001 (ip), vehicle: Klucel (hydroxypropylcellulose) (HPC) 97 % of control

CC(=O)NC(CO)C(=O)NCC(=O)NC(CCCN=C(N)N)C(N)=O (stereo not drawn) (Ac-Ser-Gly-Arg-NH2; configuration not given here)
inactive: dose: 25.0 mg/kg/injection, schedule: Q04DX002 (ip), vehicle: Klucel (hydroxypropylcellulose) (HPC) 100 % of control | dose: 50.0 mg/kg/injection, schedule: Q04DX002 (ip), vehicle: Klucel (hydroxypropylcellulose) (HPC) 100 % of control | [13] 100 % of control

O=C(OCC1OCOC(COC(=O)c2ccccc2)C1O)c1ccccc1 (stereo unspecified)
inactive: [14] 118 % of control | [15] 112 % of control | [16] 102 % of control

OC1CC2(c3ccccc3)OC1(c1ccccc1)c1ccccc12 (stereo unspecified)
inactive: [13] 112 % of control | dose: 200.0 mg/kg/injection, schedule: Q04DX002 (ip), vehicle: Klucel (hydroxypropylcellulose) (HPC) 101 % of control | dose: 400.0 mg/kg/injection, schedule: Q04DX002 (ip), vehicle: Klucel (hydroxypropylcellulose) (HPC) 115 % of control

CCCCCCCCCCCCCCCCNS(=O)(=O)c1ccc(N2CCOCC2)c(N)c1
inactive: [4] 93 % of control | [5] 98 % of control | [6] 94 % of control

C[n+]1ccccc1NC(=O)c1ccc(C(=O)Nc2cccc[n+]2C)cc1
inactive: dose: 7.5 mg/kg/injection, schedule: Q01DX Z (ip), vehicle: saline 98 % of control | dose: 15.0 mg/kg/injection, schedule: Q01DX Z (ip), vehicle: saline 100 % of control | dose: 30.0 mg/kg/injection, schedule: Q01DX Z (ip), vehicle: saline 87 % of control | dose: 120.0 mg/kg/injection, schedule: Q01DX Z (ip), vehicle: saline 87 % of control | dose: 240.0 mg/kg/injection, schedule: Q01DX Z (ip), vehicle: saline 91 % of control

CCCCCCCCCCCCCCCCCC(=O)NCC#CCN1CCCC1
inactive: dose: 5.0 mg/kg/injection, schedule: Q01DX001 (ip), vehicle: saline 97 % of control | dose: 10.0 mg/kg/injection, schedule: Q01DX001 (ip), vehicle: saline 94 % of control | dose: 20.0 mg/kg/injection, schedule: Q01DX001 (ip), vehicle: saline 100 % of control | [17] 96 % of control | dose: 40.0 mg/kg/injection, schedule: Q01DX001 (ip), vehicle: saline 105 % of control | [18] 95 % of control | dose: 80.0 mg/kg/injection, schedule: Q01DX001 (ip), vehicle: saline 94 % of control | [7] 90 % of control | [19] 104 % of control

CC(=O)OC1CC2c3ccccc3C1c1cccc[n+]12 (stereo unspecified)
inactive: dose: 12.5 mg/kg/injection, schedule: Q01DX001 (ip), vehicle: Klucel (hydroxypropylcellulose) (HPC) 97 % of control | dose: 12.5 mg/kg/injection, schedule: Q01DX009 (ip), vehicle: Klucel (hydroxypropylcellulose) (HPC) 100 % of control | dose: 25.0 mg/kg/injection, schedule: Q01DX001 (ip), vehicle: Klucel (hydroxypropylcellulose) (HPC) 101 % of control | [17] 102 % of control | dose: 25.0 mg/kg/injection, schedule: Q04DX003 (ip), vehicle: Klucel (hydroxypropylcellulose) (HPC) 101 % of control | dose: 50.0 mg/kg/injection, schedule: Q01DX001 (ip), vehicle: Klucel (hydroxypropylcellulose) (HPC) 105 % of control | [18] 104 % of control | dose: 50.0 mg/kg/injection, schedule: Q04DX003 (ip), vehicle: Klucel (hydroxypropylcellulose) (HPC) 94 % of control | dose: 75.0 mg/kg/injection, schedule: Q01DX009 (ip), vehicle: Klucel (hydroxypropylcellulose) (HPC) 88 % of control | [12] 101 % of control

CCOC(CN(Cc1ccccc1)CC(OCC)OCC)OCC
inactive: [14] 100 % of control | [15] 97 % of control and 100 % of control | [16] 92 % of control | dose: 400.0 mg/kg/injection, schedule: Q04DX002 (ip), vehicle: saline with Tween-80 91 % of control

CC(=O)C(C)[P+](c1ccccc1)(c1ccccc1)c1ccccc1 (stereo unspecified)
inactive: dose: 6.25 mg/kg/injection, schedule: Q01DX009 (ip), vehicle: water 104 % of control | dose: 12.5 mg/kg/injection, schedule: Q01DX009 (ip), vehicle: water 95 % of control | dose: 12.5 mg/kg/injection, schedule: Q04DX003 (ip), vehicle: water 102 % of control | dose: 25.0 mg/kg/injection, schedule: Q01DX009 (ip), vehicle: water 102 % of control | dose: 25.0 mg/kg/injection, schedule: Q04DX003 (ip), vehicle: water 100 % of control | dose: 50.0 mg/kg/injection, schedule: Q01DX009 (ip), vehicle: water 96 % of control

COc1cc(CC#N)c(OC)cc1CC#N
inactive: [10] 94 % of control | dose: 100.0 mg/kg/injection, schedule: Q04DX003 (ip), vehicle: saline with Tween-80 89 % of control | [11] 89 % of control | dose: 200.0 mg/kg/injection, schedule: Q04DX003 (ip), vehicle: saline with Tween-80 89 % of control | dose: 400.0 mg/kg/injection, schedule: Q01DX009 (ip), vehicle: saline with Tween-80 99 % of control | dose: 400.0 mg/kg/injection, schedule: Q04DX003 (ip), vehicle: saline with Tween-80 88 % of control

NC(=O)Oc1ccc(Cc2ccccc2)cc1
inactive: [7] 97 % of control | [4] 95 % of control | [8] 103 % of control | [5] 97 % of control | [9] 110 % of control | [6] 95 % of control

CCCCCCCc1ccc2cccc3c2c1C(=O)c1ccccc1-3
inactive: [4] 92 % of control | [5] 92 % of control | [6] 94 % of control

N#Cc1ccc(NC(=O)NNC(=O)CCCC(=O)NNC(=O)Nc2ccc(C#N)cc2)cc1
inactive: [1] 95 % of control | [2] 97 % of control | [3] 101 % of control | [19] 95 % of control
